From patent publication US20250134855A1, “CO[…] AND METHODS OF USING SAME” (LYKOS THERAPEUTICS, INC., priority 2022, published 2025)
Structures can show the parent of a compound that is named as a salt. Where two headings read alike, the source gives them in different places.

Legend:
[1] = cited from earlier work
[2] = Particle size of MDMA measured by laser diffraction; assay type: physicochemical
[3] = paroxetine 20 mg a day for three days; single 100 mg dose of MDMA; cited from earlier work
CYPs = experiment: CYP induction and inhibition of CYPs other than CYP2D6
[4] = Forced degradation and storage stability of MDMA·HCl API; assay type: physicochemical
Excerpt: The crystalline, anhydrous form (Form 1) of MDMA·HCl is used for clinical development and commercialization purpose.
The long-term chemical stability of MDMA·HCl, Form I appears in FIG. 9 and FIG. 10.

[5] = Study MPKF: plasma pharmacokinetics of MDMA and MDA, single 120 mg MDMA·HCl, fasted/fed; assay type: in vivo, human; conditions: for Vd: read-out: volume of distribution
Excerpt: (§1) The MPKF was a Phase 1, open-label, randomized sequence, multi-dose, 2-period crossover food effect study in 16 healthy individuals. The MPKF study evaluated plasma concentrations of both MDMA and the active metabolite 3,4-methylenedioxyamphetamine (MDA). Summary PK Parameters of the preliminary data was based on interim analysis are presented in Table 12 Table 12 Table 12, and Table 13 Table 13 Table 13 for MDMA and MDA, respectively.
Participants were randomized to receive 1 of 2 conditions before the other: • Fasted Treatment: at least 10 hours of fasting followed by administration of MDMA HCl with 240 mL water. • Fed Treatment: at least 10 hours of fasting followed by a high-fat (approximately 50% of total caloric content of the meal) and high-calorie (approximately 800 to 1000 calories) meal was consumed within 30 minutes prior to IMP administration.
(§2) Participants remained at the clinical research unit (CRU) for each Dosing Session from the time of check-in on the night before dosing until discharge 48 hours after dosing for collection of serial blood samples for PK analysis and safety monitoring. IMP was administered on Day 1 following the treatment sequence to which the participant was randomized. An additional outpatient visit occurred 72 hours after dosing to collect a final PK sample, commensurate with the expected PK profiles of MDMA and MDA. Safety assessments were also performed at this visit.
(§3) The washout period between Dosing Sessions was at least 14 days. If a participant experienced emesis within 4 hours of administration, they were to be withdrawn from the study and replaced with a new participant. An End of Study Visit was performed 2 to 10 days after the completion of the final Dosing Session 72-hour follow-up. An informal interim analysis was planned to be conducted after at least 5 participants completed at least 1 Dosing Session to examine PK variability.
The API was a white crystalline powder of pharmaceutical quality, made according to current Good Manufacturing Practices (cGMP) for human use.
Participants: Sixteen healthy individuals were recruited for the study.
Intervention: The study was conducted as a Phase 1, open-label, randomized sequence, multi-dose, 2-period crossover food effect study. Each participant received multiple doses of MDMA, and plasma concentrations of both MDMA and the active metabolite MDA were measured.
Sample Collection: Blood samples were collected at various time points up to 72 hours after dosing. The samples were analyzed using validated liquid chromatography-tandem mass spectrometry (LC-MS/MS) methods.
Data Analysis: The summary PK parameters were presented in Table 12 for MDMA and Table 13 for MDA. The data were analyzed using descriptive statistics, and the mean and standard deviation were calculated. The results were compared between the two periods and analyzed for food effects. Statistical analyses were performed using appropriate methods, such as analysis of variance (ANOVA) and paired t-tests. A p-value of less than 0.05 was considered statistically significant.

CYP2D6 = CYP2D6 (Homo sapiens, UniProt P10635); experiment: CYP2D6 inhibition
healthy individuals = experiment: Study MPKF: safety and tolerability (AEs, laboratory, vital signs); assay type: in vivo, human
Excerpt: as §1, §2, §3

[6] = Stress-tests of thermal stability of MDMA·HCl; conditions: 70-80° C.
healthy subjects = experiment: QTc interval, randomized crossover study; assay type: in vivo, human
Protocol: The effect of MDMA·HCl on the QTc interval was evaluated in a randomized, crossover study in N healthy subjects.

[7] = Solubility and permeability of MDMA·HCl

CYP2D6, sequence (P10635 whole entry): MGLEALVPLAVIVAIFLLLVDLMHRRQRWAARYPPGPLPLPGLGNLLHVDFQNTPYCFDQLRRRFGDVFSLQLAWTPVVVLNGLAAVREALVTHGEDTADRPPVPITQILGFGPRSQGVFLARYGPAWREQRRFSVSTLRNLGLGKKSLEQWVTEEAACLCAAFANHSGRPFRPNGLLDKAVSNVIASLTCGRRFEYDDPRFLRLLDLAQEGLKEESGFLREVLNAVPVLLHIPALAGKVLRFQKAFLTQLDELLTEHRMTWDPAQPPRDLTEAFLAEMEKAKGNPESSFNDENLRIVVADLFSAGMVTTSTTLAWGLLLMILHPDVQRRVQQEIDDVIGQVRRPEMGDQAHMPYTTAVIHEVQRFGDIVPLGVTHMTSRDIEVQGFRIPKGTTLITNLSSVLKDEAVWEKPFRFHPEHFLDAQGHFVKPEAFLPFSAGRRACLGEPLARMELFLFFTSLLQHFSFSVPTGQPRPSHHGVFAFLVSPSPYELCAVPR

CNC(C)Cc1ccc2c(c1)OCO2.Cl (stereo not drawn) [Form III]
time to spontaneous conversion to Form I ([1]; storage at ambient conditions): 2.5 weeks

CNC(C)Cc1ccc2c(c1)OCO2.Cl (stereo not drawn) [Input 201101]
Dv10 [2]: 376 μm | Dv50 [2]: 512 μm | Dv90 [2]: 844 μm

CNC(C)Cc1ccc2c(c1)OCO2.Cl (stereo not drawn) [CJS194-5]
Dv10 [2]: 23.4 μm | Dv50 [2]: 151 μm | Dv90 [2]: 341 μm

CNC(C)Cc1ccc2c(c1)OCO2.Cl (stereo not drawn) [CJS194-2]
Dv10 [2]: 20.0 μm | Dv50 [2]: 135 μm | Dv90 [2]: 326 μm

Fc1ccc([C@@H]2CCNC[C@H]2COc2ccc3c(c2)OCO3)cc1 [Paroxetine, reference compound]
increase of AUC0-inf of MDMA [3]: 27% | increase of Cmax of MDMA [3]: 17%

CNC(C)Cc1ccc2c(c1)OCO2 (stereo not drawn) [MDMA·HCl, MDMA hydrochloride]
induction of CYPs (CYPs): not an inducer of CYPs | inhibition of CYPs other than CYP2D6 (CYPs; human): did not inhibit CYPs other than CYP2D6 in a clinically meaningful manner | time over which long term chemical stability remains constant ([4]; 25 degrees celsius at 60% RH, no change in appearance or increase in degradation products): up to 60 months | forced degradation ([4]; 7 days (FIG. 8)): minimal degradation | time over which chemical stability is not affected ([4]; higher humidity and temperature, 40 degrees celsius at 75% RH (FIG. 11)): up to 12 months | effect of food on exposure ([5]; high-fat meal vs fasting, single 120 mg MDMA·HCl): not affected by food | half-life ([5]; human, plasma, oral, 120 mg, single 120 mg dose of MDMA·HCl, fasting, read-out: t1/2 (converted)): 9 h | Vd ([5]; human, plasma, oral, single 100 mg dose of MDMA·HCl): 372 L | Vd ([5]; human, plasma, oral, single 120 mg dose of MDMA·HCl): 430 L | CYP2D6 inhibition (CYP2D6): strong CYP2D6 inhibitor | participants with nausea and vomiting (healthy individuals; fasted session): 12.5% | SAEs and AESI (healthy individuals; in vivo): No SAEs nor AESI were reported | overall tolerability (healthy individuals; single dose of 120 mg MDMA HCl): well tolerated | participants reporting TEAEs (healthy individuals; single dose of 120 mg MDMA HCl): 37.5% | participants with headache (healthy individuals; single dose of 120 mg MDMA HCl): 31.3% | stability in stress-tests, duration [6]: 72 h | increase in heart rate (healthy subjects; healthy subjects): > 10 bpm | QTc prolongation (healthy subjects; therapeutic dose, totality of nonclinical and clinical data): lack of clinically relevant QTc prolongation | solubility [7]: high | permeability ([7]; not told): high

CNC(C)Cc1ccc2c(c1)OCO2.Cl (stereo not drawn) [CJS194-3]
Dv10 [2]: 20.9 μm | Dv50 [2]: 134 μm | Dv90 [2]: 326 μm

CNC(C)Cc1ccc2c(c1)OCO2.Cl (stereo not drawn) [CJS194-1]
Dv10 [2]: 29.0 μm | Dv50 [2]: 170 μm | Dv90 [2]: 342 μm

CNC(C)Cc1ccc2c(c1)OCO2.Cl (stereo not drawn) [Form I]
relative stability of Forms I-III ([1]; polymorphic screening): most stable of Forms I-III

CNC(C)Cc1ccc2c(c1)OCO2.Cl (stereo not drawn) [CJS194-4]
Dv10 [2]: 23.8 μm | Dv50 [2]: 161 μm | Dv90 [2]: 353 μm
